Counter-ions that a name gives are not always drawn.
Assays:
[1] = system: M. tuberculosis H37Rv; assay: M. tuberculosis H37Rv single-dose primary screen; format: cell-based, Mycobacterium tuberculosis; conditions: 10 μg/mL
[2] = system: M. tuberculosis H37Rv; format: cell-based; conditions: Mycobacterium tuberculosis; for MIC: read-out: approximate MIC of control drug
[3] = system: M. tuberculosis H37Rv; conditions: cited from earlier work

Q: Which “% Inhibition, single-dose screen” value [1] does the source give for Cc1cccc(Nc2nc(-c3ccccc3)cs2)n1 [deaza analog of 1a, 4-phenyl-[2-(6-methyl-2-pyridyl)amino]thiazole] here?
A: The value was 22%.

Q: For CC[C@@H](CO)NCCN[C@@H](CC)CO [ethambutol], which MIC [2] is on record?
A: The MIC was about 0.5 µg/mL.

Q: Which “TB IC90” value ([3]; in the TAACF screens) does the source give for CCc1cc(C(N)=S)ccn1 [ethionamide, 2-ethylthioisonicotinamide] here?
A: The value was over 100 µg/mL.

Q: For O=C1C(O)=C([C@H]2CC[C@H](c3ccc(Cl)cc3)CC2)C(=O)c2ccccc21 [Atovaquone], which “activity against M. tuberculosis (in words)” value ([3]; Prestwick Library data) is on record?
A: The value was “modest activity”.

Q: For NCC[C@H](O)C(=O)N[C@@H]1C[C@H](N)[C@@H](O[C@H]2O[C@H](CN)[C@@H](O)[C@H](O)[C@H]2O)[C@H](O)[C@H]1O[C@H]1O[C@H](CO)[C@@H](O)[C@H](N)[C@H]1O [amikacin, Amikacin sulfate], which MIC [2] is on record?
A: The MIC was about 0.13 µg/mL.

Q: And the IC50 ([2]; run over the course of a five month period)?
A: Its IC50 is 0.09 ± 0.02 µg/mL.
